# Assay results as given in patent US20260159536A1, “AKR1C3-ACTIVATED DNA ALKYLATING AGENT, AND MEDICAL APPLICATION THEREOF” (ASCENTAWITS PHARMACEUTICALS, LTD., priority 2021, published 2026).
# Experiments:
# [1] = test system: HuPrime model LI6664 human liver cancer; test: In vivo pharmacodynamics, liver cancer LI6664 PDX model; parameters: species or system BALB/c nude mice; settings: for Relative tumor volume (x ± S) / Tumor volume (x ± S): mean ± standard error; for Tumor volume (x ± S): in mm³ (unit assumed)
# Experimental: Experiment Instruction: BALB/c nude mice were subcutaneously inoculated with HuPrime® model LI6664 tumor blocks to establish a subcutaneous transplantation tumor model of human liver cancer. […] Among them, 7.5% anhydrous ethanol+7.5% polyoxyethylene (35) castor oil+85% glucose injection D5W (pH 7.4) vehicle control group was administered by tail vein once a week for 3 consecutive weeks; test drug AST-3424 0.3 mg/kg and 1 mg/kg groups were administered by tail vein injection once a day for 5 consecutive days, followed by 2 days off, followed by 2 weeks off, and then continuously administered for 5 consecutive days; the test drug AST-3424 1.25 mg/kg group was administered by tail vein injection once a week for 2 consecutive weeks, followed by one week off, and then continuously administered for 2 consecutive weeks, Compound A 0.5 mg/kg, 1.5 mg/kg, and 4.5 mg/kg groups were administered by tail vein injection once a week for three consecutive weeks, followed by 1 week off, and then administered for three consecutive weeks. […] The efficacy was evaluated according to the relative tumor inhibition rate TGI (%), and the safety was evaluated according to the change in body weight and the death of the animals.
# [2] = Liver microsome stability, human; type: in vitro ADME; settings: for Percentage remaining after 30 minutes: Human liver microsomes
# Experimental: (§1) 1) Two individual experiments were performed.
# (§2) All experiments were performed in duplicate.
# [3] = Liver microsome stability, monkey; type: in vitro ADME; settings: for Percentage remaining after 30 minutes: Monkey liver microsomes
# Experimental: as §1, §2
smiles,measurement,setting,value
O=[N+]([O-])c1ccc(C(OP(=O)(N2CC2)N2CC2)C(F)(F)F)cc1Oc1ccc(-c2ccc(F)cc2)c(F)c1 (racemic) [Compound A],Relative tumor volume (x ± S),"[1]; Compound A 1.5 mg/kg, Day 28",4.31 ± 0.54
same,Tumor volume (x ± S),"[1]; Compound A 1.5 mg/kg, Day 28",466.31 ± 77.63
same,T/C (%),"[1]; Compound A 4.5 mg/kg, Day 28",22.95%
same,Relative tumor volume (x ± S),"[1]; Compound A 4.5 mg/kg, Day 28",2.96 ± 0.27
same,Tumor volume (x ± S),"[1]; Compound A 4.5 mg/kg, Day 28",320.72 ± 40.03
same,Size of tumor volume,"[1]; Group6, Compound A 0.5 mg/kg, Day 0",108.44 mm^3
same,Size of tumor volume,"[1]; Group6, Compound A 0.5 mg/kg, Day 4",201.76 mm^3
same,Size of tumor volume,"[1]; Group6, Compound A 0.5 mg/kg, Day 7",277.38 mm^3
same,Size of tumor volume,"[1]; Group6, Compound A 0.5 mg/kg, Day 11",301.39 mm^3
same,Size of tumor volume,"[1]; Group6, Compound A 0.5 mg/kg, Day 14",347.30 mm^3
same,Size of tumor volume,"[1]; Group6, Compound A 0.5 mg/kg, Day 18",434.18 mm^3
same,Size of tumor volume,"[1]; Group6, Compound A 0.5 mg/kg, Day 21",518.23 mm^3
same,Size of tumor volume,"[1]; Group6, Compound A 0.5 mg/kg, Day 25",746.19 mm^3
same,Size of tumor volume,"[1]; Group6, Compound A 0.5 mg/kg, Day 28",920.46 mm^3
same,Size of tumor volume,"[1]; Group6, Compound A 0.5 mg/kg, Day 32",1036.44 mm^3
same,Size of tumor volume,"[1]; Group6, Compound A 0.5 mg/kg, Day 35",1258.05 mm^3
same,Size of tumor volume,"[1]; Group6, Compound A 0.5 mg/kg, Day 39",1426.66 mm^3
same,Size of tumor volume,"[1]; Group6, Compound A 0.5 mg/kg, Day 42",1661.81 mm^3
same,Size of tumor volume,"[1]; Group6, Compound A 0.5 mg/kg, Day 46",2037.97 mm^3
same,Size of tumor volume,"[1]; Group6, Compound A 0.5 mg/kg, Day 49",1746.71 mm^3
same,Size of tumor volume,"[1]; Group7, Compound A 1.5 mg/kg, Day 0",108.25 mm^3
same,Size of tumor volume,"[1]; Group7, Compound A 1.5 mg/kg, Day 4",127.56 mm^3
same,Size of tumor volume,"[1]; Group7, Compound A 1.5 mg/kg, Day 7",152.00 mm^3
same,Size of tumor volume,"[1]; Group7, Compound A 1.5 mg/kg, Day 11",161.35 mm^3
same,Size of tumor volume,"[1]; Group7, Compound A 1.5 mg/kg, Day 14",206.44 mm^3
same,Size of tumor volume,"[1]; Group7, Compound A 1.5 mg/kg, Day 18",225.71 mm^3
same,Size of tumor volume,"[1]; Group7, Compound A 1.5 mg/kg, Day 21",287.02 mm^3
same,Size of tumor volume,"[1]; Group7, Compound A 1.5 mg/kg, Day 25",398.93 mm^3
same,Size of tumor volume,"[1]; Group7, Compound A 1.5 mg/kg, Day 28",466.31 mm^3
same,Size of tumor volume,"[1]; Group7, Compound A 1.5 mg/kg, Day 32",543.94 mm^3
same,Size of tumor volume,"[1]; Group7, Compound A 1.5 mg/kg, Day 35",643.84 mm^3
same,Size of tumor volume,"[1]; Group7, Compound A 1.5 mg/kg, Day 39",805.84 mm^3
same,Size of tumor volume,"[1]; Group7, Compound A 1.5 mg/kg, Day 42",1060.20 mm^3
same,Size of tumor volume,"[1]; Group7, Compound A 1.5 mg/kg, Day 46",1179.82 mm^3
same,Size of tumor volume,"[1]; Group7, Compound A 1.5 mg/kg, Day 49",1407.10 mm^3
same,Size of tumor volume,"[1]; Group8, Compound A 4.5 mg/kg, Day 0",108.26 mm^3
same,Size of tumor volume,"[1]; Group8, Compound A 4.5 mg/kg, Day 4",125.30 mm^3
same,Size of tumor volume,"[1]; Group8, Compound A 4.5 mg/kg, Day 7",142.58 mm^3
same,Size of tumor volume,"[1]; Group8, Compound A 4.5 mg/kg, Day 11",150.82 mm^3
same,Size of tumor volume,"[1]; Group8, Compound A 4.5 mg/kg, Day 14",176.69 mm^3
same,Size of tumor volume,"[1]; Group8, Compound A 4.5 mg/kg, Day 18",180.29 mm^3
same,Size of tumor volume,"[1]; Group8, Compound A 4.5 mg/kg, Day 21",201.42 mm^3
same,Size of tumor volume,"[1]; Group8, Compound A 4.5 mg/kg, Day 25",282.76 mm^3
same,Size of tumor volume,"[1]; Group8, Compound A 4.5 mg/kg, Day 28",320.72 mm^3
same,Size of tumor volume,"[1]; Group8, Compound A 4.5 mg/kg, Day 32",339.73 mm^3
same,Size of tumor volume,"[1]; Group8, Compound A 4.5 mg/kg, Day 35",360.45 mm^3
same,Size of tumor volume,"[1]; Group8, Compound A 4.5 mg/kg, Day 39",391.38 mm^3
same,Size of tumor volume,"[1]; Group8, Compound A 4.5 mg/kg, Day 42",417.79 mm^3
same,Size of tumor volume,"[1]; Group8, Compound A 4.5 mg/kg, Day 46",451.01 mm^3
same,Size of tumor volume,"[1]; Group8, Compound A 4.5 mg/kg, Day 49",538.20 mm^3
same,weight loss,"[1]; treatment period, tested doses",no weight loss
same,Percentage remaining after 30 minutes,[2]; with the addition of NADPH,115.25%
same,Percentage remaining after 30 minutes,[2]; without the addition of NADPH,111.93%
same,stability in liver microsomes,[2]; human,relatively stable
same,Percentage remaining after 30 minutes,[3]; with the addition of NADPH,82.29%
same,Percentage remaining after 30 minutes,[3]; without the addition of NADPH,81.30%
same,stability in liver microsomes,[3]; monkey,relatively stable
